Data from patent publication US12017975B2, “Myc-Max inhibitor compound therapeutics for cancer treatment, methods and uses associated therewith” (THE UNIVERSITY OF BRITISH COLUMBIA, priority 2018, dated 2024).
Read-outs that look alike come from different tables or passages of the source. Residues, ends and D or L forms follow the SMILES beside them.

Tested on: Myc-Max transcriptional activity
Assay: Cignal c-Myc luciferase reporter assay in LNCaP cells
Assay type: cell-based
Details: for inhibition at 25 µM / IC50 / inhibition at 5 µM / inhibition at 10 µM: Homo sapiens, LNCaP; for inhibition at 25 µM: read-out: % Inhibition 25 μM; for IC50: TABLE 2, assay not named, values match Myc-Max transcriptional activity, read-out: IC50
Description: Cell transfection was performed using TransIT-2020™ transfection reagents according to the manufacturer's instructions (Mirus™). LNCaP cells were plated at 10000 cells per well and treated for 1 day with the indicated concentration of compound. Myc reporter activity was measured using the Cignal Myc Reporter Assay Kit™ from Qiagen™ (#336841) according to the manufacturer's instructions. For the UBE2C reporter assay, 22rv1 cells were plated at 10000 cells per well in 96-well plates in RPMI media supplemented with 5% charcoal-stripped serum (CSS) and treated for 1 day with 1 μM, 10 μM and 25 μM of compound.
Compounds were subjected to experimental evaluation using the commercially available transcriptional assay Cignal c-Myc luciferase reporter assay in LNCaP cells. […] A transiently transfected Myc-driven luciferase reporter allowed the monitoring of Myc-regulated signal in LNCaP upon treatment with the in silico identified compounds.

Compound	inhibition at 25 µM (25 μM, TABLE 5)	inhibition at 25 µM (25 μM, TABLE 3)	inhibition at 5 µM (5 μM, TABLE 3)	inhibition at 10 µM (TABLE 3)	also measured
NC(=O)c1ccc(NC(=O)COC(=O)[C@H](Cc2ccccc2)NC(=O)c2ccccc2)cc1 [VPC-70339]	50%				
COc1cccc(NC(=O)c2ccccc2N(C)C(=O)CCC(=O)NCc2ccccc2)c1 [VPC-70340]	49%				
COc1ccccc1CNC(=O)c1ccc(N=S(=O)(O)c2ccc([C@@H](C)O)cc2)cc1 [VPC-70341]	50%				
CC(=O)N1c2ccc(S(=O)(O)=Nc3ccc(C(=O)NCC(=O)O)cc3)cc2C[C@@H]1C [VPC-70343]	54%				
O=C(O)CCC1CCN(C(=O)c2ccc(S(=O)(=O)NCc3cccs3)cc2)CC1 [VPC-70344]	49%				
COc1ccccc1-c1noc(CNC(=O)N[C@H](Cc2c[nH]c3ccccc23)C(=O)O)n1 [VPC-70345]	51%				
O=C(CSc1nc2ccccc2c(=O)n1CCCO)NC(=O)Nc1ccccc1F [VPC-70355]	51%				
Cc1ccccc1C(=O)N[C@H](CC(C)C)C(=O)N1CCN(S(=O)(=O)c2nc[nH]n2)CC1 [VPC-70356]	53%				
Cc1ccc(C(=O)N(C)c2ccc(OCC(=O)NCc3ccc(C(=O)O)cc3)cc2)cc1 [VPC-70358]	48%				
COCCn1c(Cc2ccccc2)nnc1SCC(=O)c1ccc2c(c1)CCC(=O)N2 [VPC-70359]	41%				
C[C@H](OC(=O)[C@@H]1CCCN1C(=O)C12CC3CC(CC(C3)C1)C2)C(=O)c1c[nH]c2ccccc12 [VPC-70360]	64%				
CS(=O)(=O)NCCc1ccc(C(=O)NC[C@H](c2cccs2)c2c[nH]c3ccccc23)cc1 [VPC-70361]	61%				
C[C@H]1CC[C@H](C(N)=O)CN1C(=O)c1cccc(S(=O)(O)=Nc2cccc(Cl)c2)c1 [VPC-70366]	60%				
O=C1COc2ccc(S(=O)(=O)N3CCC(C(=O)NC4CCCCCC4)CC3)cc2N1 [VPC-70376]	55%				
Cc1ccsc1CCNC(=O)CCS(=O)(=O)c1cc2c(cc1Cl)NC(=O)CO2 [VPC-70377]	52%				
CCOCCOc1nc(-c2cccc(F)c2)n(-c2ccc(NC[C@H](O)COC)cc2)n1 [VPC-70379]	52%				
Cc1cc2c(cc1S(=O)(=O)N1CCN(C(=O)CCC3CCCC3)CC1)OCC(=O)N2 [VPC-70380]	68%				
CC[C@@H]1Oc2cc(S(=O)(=O)N(C)CC(=O)N(C)Cc3ccccc3)c(C)cc2NC1=O [VPC-70381]		74%			IC50: 20 µM
Cc1cccc(CSc2nc(O)c3c(n2)NC(=O)C[C@H]3C(=O)Nc2cccc(F)c2)c1 [VPC-70384]	53%				
C[C@@H](NC(=O)OCc1ccccc1)C(=O)N[C@H](CCC(N)=O)C(=O)OCc1ccc([N+](=O)[O-])cc1 [VPC-70386] (HELM PEPTIDE1{[O=C(OCc1ccccc1)[*:2]].[dA].[dQ].[O=[N+]([O-])c1ccc(CO[*:1])cc1]}$$$$V2.0)	55%				
O=C(CCN1C(=O)S/C(=C/C=C/c2ccccc2)C1=O)NCCc1c[nH]c2ccccc12 [VPC-70387]		82%			
O=C(CCN1C(=O)S/C(=C\c2ccccc2)C1=O)NCCc1c[nH]c2ccccc12 [VPC-70388]		77%			IC50: 20 µM
Cc1ccc(O)c(-c2cc(C(=O)Nc3ccc(S(=O)(=O)N4CCCCC4)cc3)n[nH]2)c1 [VPC-70389]	58%				
Cc1cccc(-c2cc(C(=O)Nc3ccc(S(=O)(=O)N4CCCCC4)cc3)n[nH]2)c1O [VPC-70390]		97%			IC50: 9 µM
CS(=O)(=O)Nc1cccc(C2=NN(C(=O)CCC(=O)O)[C@H](c3ccccc3O)C2)c1 [VPC-70391]	54%				
CCn1c(CC(=O)Nc2cccc(C)c2)nnc1SCC(=O)Nc1cc(F)ccc1F [VPC-70392]	58%				

Compound	inhibition at 25 µM (25 μM, TABLE 5)	inhibition at 25 µM (25 μM, TABLE 3)	inhibition at 5 µM (5 μM, TABLE 3)	inhibition at 10 µM (TABLE 3)	also measured
Cc1c(CC(=O)NCC[C@@H](c2ccc(Cl)cc2)C(C)C)c(=O)oc2c(O)c(O)ccc12 [VPC-70393]		96%			
NS(=O)(=O)c1ccc(NC(=O)[C@H]2CC=CC[C@H]2C(=O)O)cc1 [VPC-70394]	54%				
O=C(N[C@H](CO)Cc1ccccc1)c1cc(-n2cnnc2)ccc1Cl [VPC-70395]	56%				IC50: > 25 µM
CCCc1cc(=O)oc2cc(C)cc(OCC(=O)N[C@@H](C)C(=O)O)c12 [VPC-70404]	53%				
CCCc1cc(=O)oc2cc(C)cc(OCC(=O)N[C@H](C(=O)O)C(C)C)c12 [VPC-70405]	54%				
FC(F)(F)c1cc(NC(=S)NC[C@H]2CCCO2)cc(C(F)(F)F)c1 [VPC-70437]		87%	24%	105%	
S=C(NCc1cccs1)Nc1ccc(Cl)c(Cl)c1 [VPC-70458]		86%	42%	104%	
Fc1ccccc1CNC(=S)Nc1cccc(C(F)(F)F)c1 [VPC-70465]		92%	51%		% Inhibition 10 μM (TABLE 3): 95%; IC50: 10 µM
O=C(NCc1ccccc1Cl)Nc1ccc(Cl)c(Cl)c1 [VPC-70466]		86%	1%	48%	
Cc1c(Cl)cccc1NC(=S)NCc1ccc(F)cc1 [VPC-70468]		74%	9%	30%	
CC[C@@H](NC(=S)Nc1cccc(C)c1)c1ccccc1 [VPC-70473]		77%			
S=C(NCc1ccccc1)Nc1cccc(Cl)c1 [VPC-70477]		99%	3%	30%	
Cc1cc(NC(=S)NCC(C)C)cc(C(F)(F)F)c1 [VPC-70478]		91%	26%	65%	
Fc1ccccc1CNC(=S)Nc1cccc(C(F)(F)F)c1 [VPC-70483]					% Inhibition 5 μM (5 μM, TABLE 3): 31%; % Inhibition 10 μM (TABLE 3): 38%; % Inhibition 25 μM (25 μM, TABLE 3): 79%
CS(=O)(O)=Nc1cccc(NC(=S)NCc2cccc(C(F)(F)F)c2)c1 [VPC-70487]		79%	34%	42%	
C=C(C)COc1cccc(NC(=S)NCc2cccc(C(F)(F)F)c2)c1 [VPC-70489]		99%	38%	86%	
FC(F)(F)c1cc(Br)cc(NC(=S)NCc2cccs2)c1 [VPC-70495]		100%	107%	80%	IC50: 5 µM
S=C(NCc1cccnc1)Nc1cc(Cl)cc(Cl)c1 [VPC-70496]		96%	22%	95%	
S=C(NCc1ccccc1)Nc1cc(Cl)cc(Cl)c1 [VPC-70498]		100%	36%	106%	
COC(=O)c1cc(NC(=S)NCc2ccccc2)cc(Cl)c1F [VPC-70501]		90%	34%	37%	
C[C@@H]1CN(Cc2ccc(CNC(=S)Nc3cccc(C(F)(F)F)c3)cc2)C[C@@H](C)O1 [VPC-70506]		89%	73%	66%	
O=C(Nc1cccc(C(F)(F)F)c1)Nc1cccc(C(F)(F)F)c1 [VPC-70511]		102%	108%	112%	IC50: 2 µM
FC(F)(F)c1cccc(NC(=S)Nc2ccc(Cl)c(C(F)(F)F)c2)c1 [VPC-70514]		102%	109%	110%	
FC(F)Oc1ccc(CNC(=S)Nc2cccc(C(F)(F)F)c2)cc1 [VPC-70523]		102%	-4%	104%	
S=C(NCc1ccc(Cl)nc1)Nc1cccc(Cl)c1 [VPC-70524]		102%	22%	4%	
NS(=O)(=O)c1cc(F)cc(NC(=S)NCc2ccccc2)c1 [VPC-70525]		102%	40%	35%	
